The results in this text go back to ChEMBL document CHEMBL5678811 (Invest New Drugs, 2014).

Structures are written as SMILES. Activity calls are given as the source filed them. The rule behind the calls is not given here.

Data set [1] has as its system MV4-11. The data set can be described thus: Cell cycle arrest in human MV4-11 cells assessed as accumulation of cells at G2/M-phase at 0.04 uM measured after 24 hrs by propidium iodide staining based flow cytometry (reference value: 15.23%). It is filed as functional. A general note: Flow cytometry measures light scatter and fluorescence of single cells or particles in a stream.

The test system of data set [2] is MV4-11. Kind of data set: Cell cycle arrest in human MV4-11 cells assessed as accumulation of cells at S-phase at 0.04 uM measured after 24 hrs by propidium iodide staining based flow cytometry (reference value: 23.35%). It is filed as functional.
In data set [3] the test system is MV4-11. Kind of data set: Cell cycle arrest in human MV4-11 cells assessed as accumulation of cells at S-phase at 0.08 uM measured after 24 hrs by propidium iodide staining based flow cytometry (reference value: 23.35%). It is filed as functional.
Data set [4] relates to MV4-11. Kind of data set: Cell cycle arrest in human MV4-11 cells assessed as accumulation of cells at G1-phase at 0.16 uM measured after 24 hrs by propidium iodide staining based flow cytometry (reference value: 61.42%). The class given is functional.
Data set [5] deals with MV4-11. The data set can be described thus: Cell cycle arrest in human MV4-11 cells assessed as accumulation of cells at G1-phase at […] measured after 24 hrs by propidium iodide staining based flow cytometry (reference value: 61.42%). The class given is functional. To be noted: dose 0.625 µM.
In data set [6] the test system is MV4-11. The data set can be described thus: Cell cycle arrest in human MV4-11 cells assessed as accumulation of cells at G2/M-phase at […] measured after 24 hrs by propidium iodide staining based flow cytometry (reference value: 15.23%). The class given is functional. To be noted: dose 0.625 µM.
Data set [7] has as its system MDA-MB-231. The data set can be described thus: Cell cycle arrest in human MDA-MB-231 cells assessed as accumulation of cells at S-phase at 0.16 uM measured after 24 hrs by propidium iodide staining based flow cytometry (reference value: 38.27%). The class given is functional.
Data set [8] has as its system MDA-MB-231. Kind of data set: Cell cycle arrest in human MDA-MB-231 cells assessed as accumulation of cells at S-phase at 2.5 uM measured after 24 hrs by propidium iodide staining based flow cytometry (reference value: 38.27%). It is filed as functional.
A further data set has as its system MDA-MB-468. Kind of data set: Cell cycle arrest in human MDA-MB-468 cells assessed as accumulation of cells at G2/M-phase at 0.16 uM measured after 24 hrs by propidium iodide staining based flow cytometry (reference value: 26.49%). The class given is functional.
The test system of data set [9] is COLO 205. Kind of data set: In vivo inhibition of CDK4/CDK6 in human COLO 205 cells xenografted CD1 nu/nu mouse assessed as reduction in pHH3 expression at 12.5 to 50 mg/kg, po administered via gavage measured after 24 hrs by Western blot analysis. The class given is functional, organism-based. To be noted: dose 12.5-50 mg/kg. (In xenograft studies the graft and the host belong to different species.)

A short description of data set [10]: Toxicity in human COLO 205 cells xenografted CD1 nu/nu mouse assessed as change in jejunum histology at 50 mg/kg, po administered daily via gavage for 56 days and measured on day 41 to 69 by histopathological analysis. To be noted: in vivo, 1344 h, time 41-69 day. The class given is organism-based.
Data set [11] is described as follows: Toxicity in human COLO 205 cells xenografted CD1 nu/nu mouse assessed as change in ileum histology at 50 mg/kg, po administered daily via gavage for 56 days and measured on day 41 to 69 by histopathological analysis. The class given is organism-based. To be noted: in vivo, 1344 h, time 41-69 day.
Data set [12] is described as follows: Toxicity in human COLO 205 cells xenografted CD1 nu/nu mouse assessed as change in cecum histology at 50 mg/kg, po administered daily via gavage for 2 cycles of 3 weeks on/1 week rest and measured on day 41 to 69 by histopathological analysis. The class given is organism-based. To be noted: in vivo, time 41-69 day.
For data set [13], the system named is COLO 205. To be noted: Mus musculus, CD1, dose 50.0 mg/kg, route po, time lower 1.0 hrs, time upper […], TDE = time-dependent effect.
Data set [14] relates to COLO 205. To be noted: Mus musculus, CD1, dose 25-50 mg/kg, route po.
For data set [15], the system named is COLO 205. To be noted: Mus musculus, CD1, dose 25-50 mg/kg, route po. The source holds these as a separate data set.
Data set [16] concerns COLO 205. To be noted: Homo sapiens, dose 50.0 mg/kg, route po, time 56.0 day.
Data set [17] relates to Calu-6. To be noted: Homo sapiens, dose 50.0 mg/kg, route po, time 21.0 day.
Data set [18] deals with Calu-6. To be noted: Homo sapiens, dose 50.0 mg/kg, route po, time 21.0 day. This is another data set of the same source.
In data set [19] the test system is Calu-6. To be noted: Homo sapiens, dose 50.0 mg/kg, route po, time 16.0 day.
Data set [20] is filed under the species Mus musculus. To be noted: CD1, dose 50.0 mg/kg, route po, time 17.0 day.
The species entered for data set [21] is Mus musculus. To be noted: CD1, dose 50.0 mg/kg, route po, time 17.0 day. The source holds these as a separate data set.
In data set [22] the target is Cyclin-dependent kinase 5/CDK5 activator 1 (Homo sapiens) (UniProt Q00535+Q15078). To be noted: Sf21, dose 200.0 nM.
Sequence of Cyclin-dependent kinase 5/CDK5 activator 1 (Homo sapiens) (Q00535 whole entry): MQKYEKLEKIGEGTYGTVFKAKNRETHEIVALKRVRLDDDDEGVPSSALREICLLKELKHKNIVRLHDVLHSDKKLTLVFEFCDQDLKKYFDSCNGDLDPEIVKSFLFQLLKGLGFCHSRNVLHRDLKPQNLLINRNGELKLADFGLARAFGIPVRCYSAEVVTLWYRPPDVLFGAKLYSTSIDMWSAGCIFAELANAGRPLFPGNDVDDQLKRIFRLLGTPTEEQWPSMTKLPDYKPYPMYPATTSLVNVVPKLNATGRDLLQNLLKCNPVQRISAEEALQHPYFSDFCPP
Sequence of Cyclin-dependent kinase 5/CDK5 activator 1 (Homo sapiens) (Q15078 99-307 partner limits assumed): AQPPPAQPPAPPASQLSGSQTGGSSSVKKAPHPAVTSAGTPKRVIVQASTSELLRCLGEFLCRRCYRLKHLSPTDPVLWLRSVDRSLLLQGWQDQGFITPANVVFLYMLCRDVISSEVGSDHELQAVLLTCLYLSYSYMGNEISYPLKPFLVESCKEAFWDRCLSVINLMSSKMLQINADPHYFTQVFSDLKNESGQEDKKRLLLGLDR
Description: Inhibition of recombinant human full-length N-terminal His6-tagged cdk5/N-terminal GST-tagged p35 expressed in baculovirus infected Sf21 cells at 200 nM using histone H1 as substrate relative to control
The subject of data set [23] is T1, Receptor-type tyrosine-protein kinase FLT3 (Homo sapiens), P36888 [D835Y].
T1 sequence (whole entry): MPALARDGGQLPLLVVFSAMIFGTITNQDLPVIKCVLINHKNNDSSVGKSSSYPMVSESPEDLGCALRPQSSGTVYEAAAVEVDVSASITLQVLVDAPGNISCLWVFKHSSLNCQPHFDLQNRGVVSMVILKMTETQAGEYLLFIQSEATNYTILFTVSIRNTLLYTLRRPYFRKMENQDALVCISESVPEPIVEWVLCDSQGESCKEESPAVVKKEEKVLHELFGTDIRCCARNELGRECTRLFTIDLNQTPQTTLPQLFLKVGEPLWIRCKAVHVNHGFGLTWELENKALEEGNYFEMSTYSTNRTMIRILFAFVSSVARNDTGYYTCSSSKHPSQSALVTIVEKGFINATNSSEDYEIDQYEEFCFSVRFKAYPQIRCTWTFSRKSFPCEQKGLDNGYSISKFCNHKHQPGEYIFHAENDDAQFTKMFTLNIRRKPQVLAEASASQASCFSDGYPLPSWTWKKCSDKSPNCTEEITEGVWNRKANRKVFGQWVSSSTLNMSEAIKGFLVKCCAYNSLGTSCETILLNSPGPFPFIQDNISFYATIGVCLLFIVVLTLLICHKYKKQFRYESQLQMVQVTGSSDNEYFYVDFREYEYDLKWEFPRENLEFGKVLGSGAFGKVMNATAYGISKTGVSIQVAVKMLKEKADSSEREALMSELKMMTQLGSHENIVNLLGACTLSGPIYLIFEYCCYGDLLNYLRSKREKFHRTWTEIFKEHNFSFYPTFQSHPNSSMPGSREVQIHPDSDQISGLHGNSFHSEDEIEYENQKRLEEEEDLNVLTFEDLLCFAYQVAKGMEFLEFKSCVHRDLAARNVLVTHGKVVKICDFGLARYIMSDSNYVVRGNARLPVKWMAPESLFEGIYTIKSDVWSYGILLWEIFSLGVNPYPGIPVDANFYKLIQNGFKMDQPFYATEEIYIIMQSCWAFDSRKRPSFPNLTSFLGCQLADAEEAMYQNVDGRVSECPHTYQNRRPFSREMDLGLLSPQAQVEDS
To be noted: Sf21, dose 200.0 nM.

For `CCN1CCN(Cc2ccc(Nc3ncc(F)c(-c4cc(F)c5nc(C)n(C(C)C)c5c4)n3)nc2)CC1` [ABEMACICLIB], the Activity is given as 6.21% in the data set on MV4-11 [1]; 16.32% in the data set on MV4-11 [2]; 8.59% in the data set on MV4-11 [3]; 92.68% with MV4-11 [4]; 94.63% in the data set with MV4-11 [5]; 1.78% in the data set with MV4-11 [6]. Also, the Activity in the data set on MDA-MB-231 [7] is 17.12%; in the data set on MDA-MB-231 [8], 8.19%; in the data set on MDA-MB-468, 24.55%; in [10] it was “Non-Toxic”; in data set [11], “Non-Toxic”; in data set [12] it was “Non-Toxic”. Further, the inhibition (usually the drop in the measured response relative to a control, in per cent) in the data set with COLO 205 [9] was “Active”. The inhibition entry is “Tde” in the data set on COLO 205 [13]; “Dose-Dependent Effect” in the data set with COLO 205 [14]; “Dose-Dependent Effect” in the data set with COLO 205 [15]; above 90% in data set [22]; above 90% in data set [23]. The TGI result in the data set with COLO 205 [16], in the data set on Calu-6 [17], in the data set with Calu-6 [18] and with Calu-6 [19] was “Active” each time. Also, the inhibition result in the data set listed under Mus musculus [20] and in the data set listed under Mus musculus [21] was “inactive” each time.
